Patent publication US6960614B2, “Oxygenated esters of 4-lodo phenylamino benzhydroxamic acids” (Warner-Lambert Company, priority 2000, dated 2005)

Tested on: MEK
Experiment: Cellular Assay for Measuring MEK Inhibition (inhibition of ERK phosphorylation in C26 cells, Western blot)
Format: cell-based, murine
Details: for IC50: inhibition of ERK phosphorylation in murine colon 26 (C26) carcinoma cells, determined graphically from dose response curve; for % Inhibition @ 0.1 μM / % Inhibition @ 1 μM / % Inhibition @ 10 μM: ERK phosphorylation in C26 cells
Method: The evaluation of the compounds as MEK inhibitors was performed in an assay that measures their ability to inhibit phosphorylation of MAP kinase […]) in murine colon 26 (C26) carcinoma cells. Since ERK1 and ERK2 represent the only known substrates for MEK, measurement of inhibition of ERK phosphorylation in cells provides direct readout of cellular MEK inhibition by the compounds of the invention. Briefly, the assay involves treating exponentially growing C26 cells with varying concentrations of the test compound (or vehicle control) for […] at 37° C. Cells are then rinsed free of compound/vehicle and lysed in a solution containing 70 mM NaCl, 50 mM glycerol phosphate, 10 mM HEPES, pH 7.4, 1% Triton X-100, 1 mM Na3VO4, 100 μM PMSF, 10 μM leupeptin and 10 μM pepstatin. Supernatants are then subjected to gel electrophoresis and Western blotting using a primary antibody recognizing dually phosphorylated ERK1 and ERK2. To evaluate total MAPK levels, blots were subsequently ‘stripped’ and re-probed with a 1:1 mixture of polyclonal antibodies recognizing unphosphorylated ERK1 and ERK2.

Structure (SMILES) | IC50 | % Inhibition @ 0.1 μM | % Inhibition @ 1 μM | % Inhibition @ 10 μM
O=C(NOCC(O)CN1CCOCC1)c1cc(F)c(F)c(F)c1Nc1ccc(I)cc1Cl (stereo not shown) [Example 145, 2-(2-Chloro-4-iodo-phenylamino)-3,4,5-trifluoro-N-(2-hydroxy-3-morpholin-4-yl-propoxy)-benzamide] | 100 nM | – | – | –
Cc1cc(I)ccc1Nc1c(C(=O)NOCC(O)CN2CCOCC2)cc(F)c(F)c1F (stereo not shown) [Example 146, 3,4,5-Trifluoro-N-(2-hydroxy-3-morpholin-4-yl-propoxy)-2-(4-iodo-2-methyl-phenylamino)-benzamide] | – | 0% | 40.5% | –
Cc1cc(I)ccc1Nc1c(C(=O)NOCC(O)CN2CCOCC2)cc(Br)c(F)c1F (stereo not shown) [Example 147, 5-Bromo-3,4-difluoro-N-(2-hydroxy-3-morpholin-4-yl-propoxy)-2-(4-iodo-2-methyl-phenylamino)-benzamide] | 100 nM | – | – | –
Cc1cc(I)ccc1Nc1c(C(=O)NOCC(O)CN2CCOCC2)ccc(F)c1F (stereo not shown) [Example 148, 3,4-Difluoro-N-(2-hydroxy-3-morpholin-4-yl-propoxy)-2-(4-iodo-2-methyl-phenylamino)-benzamide] | 230 nM | – | – | –
O=C(NOCC(O)CN1CCOCC1)c1cc(Cl)c(F)c(F)c1Nc1ccc(I)cc1Cl (stereo not shown) [Example 149, 5-Chloro-2-(2-chloro-4-iodo-phenylamino)-3,4-difluoro-N-(2-hydroxy-3-morpholin-4-yl-propoxy)-benzamide] | 170 nM | – | – | –
Cc1cc(I)ccc1Nc1c(C(=O)NOCC(O)CN2CCOCC2)cc(Cl)c(F)c1F (stereo not shown) [Example 150, 5-Chloro-3,4-difluoro-N-(2-hydroxy-3-morpholin-4-yl-propoxy)-2-(4-iodo-2-methyl-phenylamino)-benzamide] | – | 49% | 99.9% | –
O=C(NOCC(O)CN1CCOCC1)c1ccc(F)c(F)c1Nc1ccc(I)cc1F (stereo not shown) [Example 151, 3,4-Difluoro-2-(2-fluoro-4-iodo-phenylamino)-N-(2-hydroxy-3-morpholin-4-yl-propoxy)-benzamide] | 41 nM | – | – | –
O=C(NOCC(O)CN1CCOCC1)c1cc(Cl)c(F)c(F)c1Nc1ccc(I)cc1F (stereo not shown) [Example 152, 5-Chloro-3,4-difluoro-2-(2-fluoro-4-iodo-phenylamino)-N-(2-hydroxy-3-morpholin-4-yl-propoxy)-benzamide] | – | 59.2% | 90.3% | –
O=C(NOCC(O)CN1CCOCC1)c1cc(F)c(F)cc1Nc1ccc(I)cc1F (stereo not shown) [Example 153, 4,5-Difluoro-2-(2-fluoro-4-iodo-phenylamino)-N-(2-hydroxy-3-morpholin-4-yl-propoxy)-benzamide] | – | 13.9% | 89.5% | –
O=C(NOCC(O)CN1CCOCC1)c1cc(Cl)c(F)c(F)c1Nc1ccc(F)cc1F (stereo not shown) [Example 154, 5-Chloro-2-(2,4-difluoro-phenylamino)-3,4-difluoro-N-(2-hydroxy-3-morpholin-4-yl-propoxy)-benzamide] | – | – | 8.9% | 51%
O=C(NOCC(O)CN1CCOCC1)c1ccc(F)c(F)c1Nc1ccc(Cl)cc1F (stereo not shown) [Example 155, 2-(4-Chloro-2-fluoro-phenylamino)-3,4-difluoro-N-(2-hydroxy-3-morpholin-4-yl-propoxy)-benzamide] | – | 0% | 30.9% | –
CC(O)CONC(=O)c1ccc(F)c(F)c1Nc1ccc(I)cc1Cl (stereo not shown) [Example 156, 2-(2-Chloro-4-iodo-phenylamino)-3,4-difluoro-N-(2-hydroxy-propoxy)-benzamide] | 11 nM | – | – | –
Cc1cc(I)ccc1Nc1c(C(=O)NOCC(C)O)cc(F)c(F)c1F (stereo not shown) [Example 157, 3,4,5-Trifluoro-N-(2-hydroxy-propoxy)-2-(4-iodo-2-methyl-phenylamino)-benzamide] | – | 50.7% | 91.5% | –
Cc1cc(I)ccc1Nc1c(C(=O)NOCC(C)O)cc(Br)c(F)c1F (stereo not shown) [Example 159, 5-Bromo-3,4-difluoro-N-(2-hydroxy-propoxy)-2-(4-iodo-2-methyl-phenylamino)-benzamide] | – | 88.4% | 100% | –
CC(O)CONC(=O)c1cc(F)c(F)c(F)c1Nc1ccc(I)cc1Cl (stereo not shown) [Example 160, 2-(2-Chloro-4-iodo-phenylamino)-3,4,5-trifluoro-N-(2-hydroxy-propoxy)-benzamide] | – | 71.9% | 96.8% | –
CC(O)CONC(=O)c1cc(Cl)c(F)c(F)c1Nc1ccc(I)cc1Cl (stereo not shown) [Example 161, 5-Chloro-2-(2-chloro-4-iodo-phenylamino)-3,4-difluoro-N-(2-hydroxy-propoxy)-benzamide] | 15 nM | – | – | –

Structure (SMILES) | IC50 | % Inhibition @ 0.1 μM | % Inhibition @ 1 μM | % Inhibition @ 10 μM
Cc1cc(I)ccc1Nc1c(C(=O)NOCC(C)O)ccc(F)c1F (stereo not shown) [Example 162, 3,4-Difluoro-N-(2-hydroxy-propoxy)-2-(4-iodo-2-methyl-phenylamino)-benzamide] | 7.85 nM | – | – | –
Cc1cc(I)ccc1Nc1c(C(=O)NOCC(C)O)cc(Cl)c(F)c1F (stereo not shown) [Example 163, 5-Chloro-3,4-difluoro-N-(2-hydroxy-propoxy)-2-(4-iodo-2-methyl-phenylamino)-benzamide] | – | 88.9% | 95.1% | –
CC(O)CONC(=O)c1ccc(F)c(F)c1Nc1ccc(I)cc1F (stereo not shown) [Example 164, 3,4-Difluoro-2-(2-fluoro-4-iodo-phenylamino)-N-(2-hydroxy-propoxy)-benzamide] | 3 nM | – | – | –
CC(O)CONC(=O)c1cc(Cl)c(F)c(F)c1Nc1ccc(I)cc1F (stereo not shown) [Example 165, 5-Chloro-3,4-difluoro-2-(2-fluoro-4-iodo-phenylamino)-N-(2-hydroxy-propoxy)-benzamide] | 4 nM | – | – | –
CC(O)CONC(=O)c1cc(Cl)c(F)c(F)c1Nc1ccc(F)cc1F (stereo not shown) [Example 166, 5-Chloro-2-(2,4-difluoro-phenylamino)-3,4-difluoro-N-(2-hydroxy-propoxy)-benzamide] | – | 0% | 31.9% | 88.7%
CC(O)CONC(=O)c1ccc(F)c(F)c1Nc1ccc(F)cc1F (stereo not shown) [Example 167, 2-(2,4-Difluoro-phenylamino)-3,4-difluoro-N-(2-hydroxy-propoxy)-benzamide] | – | – | 80.5% | 89.2%
CC(O)CONC(=O)c1ccc(F)c(F)c1Nc1ccc(Cl)cc1F (stereo not shown) [Example 168, 2-(4-Chloro-2-fluoro-phenylamino)-3,4-difluoro-N-(2-hydroxy-propoxy)-benzamide] | – | 48.8% | 89.5% | –
CC(O)CONC(=O)c1cc(F)c(F)cc1Nc1ccc(I)cc1F (stereo not shown) [Example 169, 4,5-Difluoro-2-(2-fluoro-4-iodo-phenylamino)-N-(2-hydroxy-propoxy)-benzamide] | 14 nM | – | – | –
CC(C)(O)CONC(=O)c1cc(F)c(F)c(F)c1Nc1ccc(I)cc1Cl [Example 170, 2-(2-Chloro-4-iodo-phenylamino)-3,4,5-trifluoro-N-(2-hydroxy-2-methyl-propoxy)-benzamide] | – | 19% | 85.7% | –
Cc1cc(I)ccc1Nc1c(C(=O)NOCC(C)(C)O)cc(F)c(F)c1F [Example 171, 3,4,5-Trifluoro-N-(2-hydroxy-2-methyl-propoxy)-2-(4-iodo-2-methyl-phenylamino)-benzamide] | – | 35.6% | 94.6% | –
Cc1cc(I)ccc1Nc1c(C(=O)NOCC(C)(C)O)cc(Br)c(F)c1F [Example 172, 5-Bromo-3,4-difluoro-N-(2-hydroxy-2-methyl-propoxy)-2-(4-iodo-2-methyl-phenylamino)-benzamide] | – | 41.9% | 92.9% | –
CC(C)(O)CONC(=O)c1cc(Br)c(F)c(F)c1Nc1ccc(I)cc1Cl [Example 173, 5-Bromo-2-(2-chloro-4-iodo-phenylamino)-3,4-difluoro-N-(2-hydroxy-2-methyl-propoxy)-benzamide] | 300 nM | – | – | –
Cc1cc(I)ccc1Nc1c(C(=O)NOCC(C)(C)O)ccc(F)c1F [Example 174, 3,4-Difluoro-N-(2-hydroxy-2-methyl-propoxy)-2-(4-iodo-2-methyl-phenylamino)-benzamide] | 100 nM | – | – | –
CC(C)(O)CONC(=O)c1cc(Cl)c(F)c(F)c1Nc1ccc(I)cc1Cl [Example 175, 5-Chloro-2-(2-chloro-4-iodo-phenylamino)-3,4-difluoro-N-(2-hydroxy-2-methyl-propoxy)-benzamide] | 180 nM | – | – | –
Cc1cc(I)ccc1Nc1c(C(=O)NOCC(C)(C)O)cc(Cl)c(F)c1F [Example 176, 5-Chloro-3,4-difluoro-N-(2-hydroxy-2-methyl-propoxy)-2-(4-iodo-2-methyl-phenylamino)-benzamide] | – | 14.1% | 87.7% | –
